For assay [1], the target named is T1, HLA-A*02:01 (Homo sapiens, UniProt P04439, D140Y/D185E/D98H/E176V/E277Q/G131W/G231S/I119V/I121R/I166T/I218V/L300P/L318F/N151K/N90K/P208A/P217A/Q86G/Q94H/R138H/R169H/T345S). Put plainly: Candidate in-place peptide exchange testing (loss of FITC signal, flow cytometry). The following applies: for suitability as in-place peptide (affinity and exchangeability): HLA-A*02:01, FIG. 29; for exchange efficiency: FITC in-place peptide, 1 micromolar pHLA, 20 micromolar incoming peptide LMYAKRAFV, 10 mM GlyCha, room temperature, 4 hour. Format: binding. The source says: Candidate peptides with a FITC-modified Lysine at Position 4 or 5 shown in Table 6 were purchased from a peptide manufacturer (Genscript). The fluorescent peptides were loaded into recombinant, biotinylated HLA-A*02:01 by a contract manufacturer (Biolegend). […] The peptide-HLA (pHLA) concentration in the reactions was 1 micromolar. The incoming peptide concentration was 20 micromolar.
For the incoming peptide, the peptide sequence […] […] This may be used as a model for candidate antigenic peptides, which need to displace an in-place peptide stabilizing the MHC (e.g., loaded into the MHC complex), in methods of discovering antigenic peptides and methods of activating lymphocytes as described throughout the specification.
After four hours, exchanged, unexchanged and non-fluorescent biotinylated HLA complexes were loaded onto Streptavidin coated capture beads. The HLA complex coated beads were analyzed for FITC Fluorescence on a Flow Cytometer.

Assay [2] addresses T1, HLA-A*02:01. Nature of the assay: Peptide switching on peptide-HLA-A*02:01 complex with DNP-labelled initial peptide (Example 21). The format is binding.
Description: To test binding of Immunogenic and Non-Immunogenic peptides to an MHC Class I complex, a peptide-HLA-A*02:01 complex with an initial peptide [sequence] […] The initial peptide included a dinitrophenyl (DNP) moiety conjugated to the lysine at position 5. Two peptide antigens were then tested for their ability to bind to the MHC Class I complex: [sequence] […] The peptides were resuspended in DMSO to 5 mg/mL. The peptides were then further diluted ten-fold in PBS. To set up 0.05 mL peptide switching reactions, 20 micromolar [sequence] […] In addition, a control peptide switching reaction using the peptide [sequence] […]
Samples of unswitched peptide-MHC and switched peptide-MHC were then captured on Streptavidin-coated DynaBeads (ThermoFisher). […] The peptide-MHC beads were then stored at 4° C. until they were analyzed for peptide exchange.
To quantify peptide exchange, a FITC-conjugated anti-DNP antibody specific for the DNP-conjugated initial peptide was added to a sample of each captured peptide-MHC. […] The staining for pre-assembled peptide and intact pHLA complexes were detected by Flow Cytometry on a FACSCelesta with High-Throughput Sampler (BD Biosciences). […] Approximately 5,000 bead events were recorded for each sample. The Median Fluorescence Intensity (MFI) in the APC and FITC channels of each sample was then recorded. […]
For assay [3], the target named is T1, HLA-A*02:01. Nature of the assay: Peptide binding and stability under culture conditions (Example 22). The following applies: beads in T Cell Culture Media at 37° C.; W6/32 antibody MFI, exponential decay fit. Here is the method:
To assess the stability of the pMHC Class I-peptide antigen complexes under the conditions that are used to culture T Cells, pMHC Class I complexes were first bound to beads. Biotinylated HLA-A*02:01 complexes loaded with either […] (SEQ ID NO: 5) or […] (SEQ ID NO: 6) peptides were diluted to 0.83 micrograms/mL in Assay Buffer (PBS with 2 mM EDTA and 0.1% Bovine Serum Albumin). To 0.6 mL of the pMHC solutions in microcentrifuge tubes, […] Streptavidin-coated DynaBeads (M-280, ThermoFisher) were added. The beads were mixed in the pMHC solution for 4 minutes at 2,000 rpm on a ThermoMixer (Eppendorf). The pMHC-beads were then captured on a magnetic rack, and the solution containing unbound pMHC removed by aspiration. 1 mL of Assay Buffer was added to the tubes, and then aspirated. The beads were then resuspended in 0.1 mL of Assay Buffer. The beads were then stored at 4° C. until use. […]
Antibody binding to the beads was then detected on a FACSCelesta with High-Throughput Sampler (BD Biosciences). […] Approximately 25,000 bead events were recorded for each sample. The Median Fluorescence Intensity (MFI) in the APC channel for the pHLA-beads in each sample was then recorded. […] The half-lives for the pHLA complexes were then calculated from the fitted decay constant.

With GAATKMAAV, in assay [1], the “suitability as in-place peptide (affinity and exchangeability)” value was “most suitable in-place peptides”.

On to “SLYSYFQKV [Immunogenic peptide antigen derived from SLC45A2] [listing 1 of 2 here]”, for which the percent peptide switching result in assay [2] is “about 99%”.

As to “SLYSYFQKV [Immunogenic peptide antigen derived from SLC45A2] [listing 2 of 2 here]”, in assay [3], the “half-life of peptide-HLA-A*02:01 complex” value is “about 17 hours”.

On to “SLLPIMWQLY [Non-Immunogenic peptide antigen derived from TCL1] [listing 1 of 2 here]”, for which the percent peptide switching entry in assay [2] is “about 90%”.

Regarding “SLLPIMWQLY [Non-Immunogenic peptide antigen derived from TCL1] [listing 2 of 2 here]”, the “half-life of peptide-HLA-A*02:01 complex” value in assay [3] is listed as “about 0.5 hours”.

“LMYAKRAFV [TBA1A (Q71U36) 397-405; used as initial peptide and as incoming/displacing peptide]”: the exchange efficiency entry in assay [1] is given as “about 0.30”.

With GMGQKDSYV [ACTB (P60709) 46-54], in assay [1], the exchange efficiency entry is “about 1.0”; the “suitability as in-place peptide (affinity and exchangeability)” value is listed as “most suitable in-place peptides”.

As to FLAIKKLYVG, the exchange efficiency entry in assay [1] was “about 0.65”.

The values above are taken from patent US20240272171A1, “Methods for Identification of Exchangeable MHC Binding Peptides and Methods of Use Thereof” (PhenomeX Inc., priority 2020, published 2024).
